The values below come from patent US7879881B2, “Piperidinyl compounds that selectively bind integrins” (Janssen Pharmaceutica NV, priority 2002, dated 2011).

Where two headings read alike, the source gives them in different places.

The target in one assay is T1, human purified αVβ5 (Homo sapiens, UniProt P06756+P18084).
T1 construct: purchased Chemicon International, Inc
Description: In Vitro Solid Phase Purified αcβ5 Binding Assay (vitronectin/αVβ5). Conditions: vitronectin binding to immobilized purified human αVβ5, mean ± spread. In a few lines:
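Purified human integrin immobilized at 1 μg/ml in Tris buffer with Ca2+, Mg2+, Mn2+ and NaCl, then BSA-blocked. Compounds added just before 2 nM vitronectin, 3 h at 37 °C. Bound vitronectin detected by anti-vitronectin antibody with biotin/peroxidase (ABC) detection at 490 nm.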

The target in another assay is T2, Human αvβ3 (Homo sapiens, UniProt P05106+P06756).
T2 construct: purchased Chemicon International Inc., Temecula, Calif
T2 sequence (P06756 31-889 limits assumed): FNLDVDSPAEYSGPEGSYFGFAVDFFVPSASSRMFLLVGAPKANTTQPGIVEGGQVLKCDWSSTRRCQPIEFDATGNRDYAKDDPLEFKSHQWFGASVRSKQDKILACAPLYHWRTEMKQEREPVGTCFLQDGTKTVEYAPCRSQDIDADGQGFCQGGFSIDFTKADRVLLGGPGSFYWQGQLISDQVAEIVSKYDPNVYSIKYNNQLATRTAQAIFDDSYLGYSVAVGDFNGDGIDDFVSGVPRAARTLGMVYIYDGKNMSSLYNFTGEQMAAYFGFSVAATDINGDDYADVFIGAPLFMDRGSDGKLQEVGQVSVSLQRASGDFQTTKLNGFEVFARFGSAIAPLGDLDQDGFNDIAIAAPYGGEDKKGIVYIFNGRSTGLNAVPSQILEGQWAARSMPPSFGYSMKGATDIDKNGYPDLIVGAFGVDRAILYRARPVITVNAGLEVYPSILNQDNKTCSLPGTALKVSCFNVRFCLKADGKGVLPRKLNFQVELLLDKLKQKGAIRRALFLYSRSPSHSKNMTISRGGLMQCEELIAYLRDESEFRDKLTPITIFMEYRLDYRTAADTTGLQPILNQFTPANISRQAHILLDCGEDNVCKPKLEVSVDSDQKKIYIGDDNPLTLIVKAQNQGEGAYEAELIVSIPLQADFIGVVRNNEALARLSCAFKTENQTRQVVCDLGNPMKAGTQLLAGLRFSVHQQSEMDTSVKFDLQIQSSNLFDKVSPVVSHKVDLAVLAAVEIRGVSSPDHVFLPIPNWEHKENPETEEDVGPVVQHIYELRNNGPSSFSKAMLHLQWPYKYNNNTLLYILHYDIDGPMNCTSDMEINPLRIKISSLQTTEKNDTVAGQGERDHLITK
T2 sequence (P06756 891-1048 partner limits assumed): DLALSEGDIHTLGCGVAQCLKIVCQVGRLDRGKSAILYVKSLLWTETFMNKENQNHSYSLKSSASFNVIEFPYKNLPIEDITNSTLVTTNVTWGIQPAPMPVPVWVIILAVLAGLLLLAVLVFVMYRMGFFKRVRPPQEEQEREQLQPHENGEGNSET
T2 sequence (P05106 27-788): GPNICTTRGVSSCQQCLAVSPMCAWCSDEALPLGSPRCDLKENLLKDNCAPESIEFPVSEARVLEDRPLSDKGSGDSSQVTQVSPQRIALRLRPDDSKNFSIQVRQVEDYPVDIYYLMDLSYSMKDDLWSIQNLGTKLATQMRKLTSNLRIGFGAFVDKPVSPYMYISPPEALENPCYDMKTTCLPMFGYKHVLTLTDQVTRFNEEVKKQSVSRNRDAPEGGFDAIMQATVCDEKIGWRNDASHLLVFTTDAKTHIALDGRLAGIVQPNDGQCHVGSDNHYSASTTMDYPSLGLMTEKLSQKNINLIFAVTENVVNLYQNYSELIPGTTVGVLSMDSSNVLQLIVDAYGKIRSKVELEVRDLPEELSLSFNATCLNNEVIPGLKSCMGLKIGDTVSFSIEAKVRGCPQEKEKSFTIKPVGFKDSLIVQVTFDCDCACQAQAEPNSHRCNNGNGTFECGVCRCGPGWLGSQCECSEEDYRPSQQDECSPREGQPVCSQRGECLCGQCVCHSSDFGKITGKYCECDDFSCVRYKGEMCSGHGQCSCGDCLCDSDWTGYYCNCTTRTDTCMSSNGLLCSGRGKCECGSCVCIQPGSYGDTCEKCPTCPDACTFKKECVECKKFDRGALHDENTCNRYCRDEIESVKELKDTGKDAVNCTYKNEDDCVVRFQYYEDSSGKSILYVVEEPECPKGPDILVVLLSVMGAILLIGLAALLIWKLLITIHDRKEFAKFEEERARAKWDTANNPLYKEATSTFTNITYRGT
Nature of the assay: In Vitro Solid Phase Purified αvβ3 Binding Assay (vitronectin/αvβ3). Particulars: vitronectin binding to immobilized purified human αvβ3, mean ± spread. In short, it runs like this: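 Purified human αvβ3 immobilized at 1 μg/ml in Tris buffer with Ca, Mg and Mn; compounds competed with 2 nM vitronectin for 3 h at 37 °C. Bound vitronectin detected by anti-vitronectin antibody and peroxidase ABC, absorbance at 490 nm.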

In a further assay the target is GP IIb/IIIa (Homo sapiens, UniProt P05106+P08514). Nature of the assay: In Vitro Solid Phase Purified GP IIb/IIIa Binding Assay (biotinylated fibrinogen). Particulars: biotinylated fibrinogen binding to immobilized purified GP IIb/IIIa, mean ± spread. In a few lines:
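Purified GP IIb/IIIa coated overnight at 4° C, blocked with 5% BSA, then incubated with test compound and biotinylated fibrinogen for 2-4 h at RT in modified Tyrodes buffer. Bound fibrinogen detected with avidin-biotin HRP complex and o-phenylenediamine/H2O2 (citrate/phosphate pH 5.3), stopped with 2 N H2SO4.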

Chain of GP IIb/IIIa (P08514 32-887 limits assumed): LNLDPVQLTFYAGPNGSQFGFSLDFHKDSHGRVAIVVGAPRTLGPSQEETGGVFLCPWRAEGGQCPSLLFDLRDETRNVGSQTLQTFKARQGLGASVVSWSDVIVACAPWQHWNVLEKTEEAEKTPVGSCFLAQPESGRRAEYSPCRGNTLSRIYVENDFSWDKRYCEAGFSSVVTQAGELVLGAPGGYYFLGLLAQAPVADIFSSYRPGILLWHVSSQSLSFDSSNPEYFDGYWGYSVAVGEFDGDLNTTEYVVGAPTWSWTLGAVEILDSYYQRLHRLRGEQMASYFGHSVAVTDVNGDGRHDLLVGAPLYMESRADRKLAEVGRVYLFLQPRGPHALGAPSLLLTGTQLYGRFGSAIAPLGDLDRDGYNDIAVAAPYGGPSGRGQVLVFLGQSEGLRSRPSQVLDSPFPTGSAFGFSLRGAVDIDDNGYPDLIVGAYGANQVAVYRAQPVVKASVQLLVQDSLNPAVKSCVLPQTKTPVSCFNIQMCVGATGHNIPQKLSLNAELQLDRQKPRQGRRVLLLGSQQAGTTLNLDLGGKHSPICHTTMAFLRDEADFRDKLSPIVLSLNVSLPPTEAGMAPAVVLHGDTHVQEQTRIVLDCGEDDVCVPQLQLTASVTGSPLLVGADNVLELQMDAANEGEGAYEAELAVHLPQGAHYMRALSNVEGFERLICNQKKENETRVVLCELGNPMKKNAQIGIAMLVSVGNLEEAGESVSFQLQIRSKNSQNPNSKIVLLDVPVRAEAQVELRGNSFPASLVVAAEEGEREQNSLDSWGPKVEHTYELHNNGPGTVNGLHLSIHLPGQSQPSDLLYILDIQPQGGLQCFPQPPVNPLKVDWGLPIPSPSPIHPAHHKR
Chain of GP IIb/IIIa (P08514 891-1039 partner limits assumed): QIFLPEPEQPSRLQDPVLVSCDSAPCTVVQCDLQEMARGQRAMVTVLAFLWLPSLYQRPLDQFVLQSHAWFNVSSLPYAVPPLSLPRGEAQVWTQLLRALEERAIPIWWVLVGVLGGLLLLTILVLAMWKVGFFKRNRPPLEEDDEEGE
Chain of GP IIb/IIIa (P05106 27-788): as the sequence (P05106 27-788) above
T1 sequence (P06756 31-889 limits assumed): as the sequence (P06756 31-889 limits assumed) above
T1 sequence (P06756 891-1048 partner limits assumed): as the sequence (P06756 891-1048 partner limits assumed) above
T1 sequence (P18084 24-799): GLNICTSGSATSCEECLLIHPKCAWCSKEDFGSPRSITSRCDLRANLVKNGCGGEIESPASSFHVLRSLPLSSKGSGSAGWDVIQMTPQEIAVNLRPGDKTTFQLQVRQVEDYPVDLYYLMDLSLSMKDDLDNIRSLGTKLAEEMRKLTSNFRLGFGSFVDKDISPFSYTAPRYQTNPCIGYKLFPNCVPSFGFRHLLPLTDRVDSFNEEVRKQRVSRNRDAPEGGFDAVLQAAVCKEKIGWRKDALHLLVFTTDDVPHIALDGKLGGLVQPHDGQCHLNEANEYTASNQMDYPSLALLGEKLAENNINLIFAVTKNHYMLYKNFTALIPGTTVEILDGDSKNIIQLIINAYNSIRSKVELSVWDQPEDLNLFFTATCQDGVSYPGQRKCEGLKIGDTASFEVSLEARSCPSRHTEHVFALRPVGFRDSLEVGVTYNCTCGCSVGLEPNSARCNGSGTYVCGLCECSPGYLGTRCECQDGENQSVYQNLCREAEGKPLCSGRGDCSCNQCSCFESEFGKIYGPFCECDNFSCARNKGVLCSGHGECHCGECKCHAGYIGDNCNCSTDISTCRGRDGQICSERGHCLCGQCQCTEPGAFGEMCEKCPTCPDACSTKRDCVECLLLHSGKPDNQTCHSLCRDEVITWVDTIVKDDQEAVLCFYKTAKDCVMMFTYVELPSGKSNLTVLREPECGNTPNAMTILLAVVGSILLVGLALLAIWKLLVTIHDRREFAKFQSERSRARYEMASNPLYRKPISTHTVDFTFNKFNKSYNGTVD

Take `O=C(O)CC(CC1CCN(C(=O)CCc2ccc3c(n2)NCCC3)CC1)c1cccc(F)c1` (single isomer, unassigned) [Cpd 30a, β-(3-fluorophenyl)-1-[1-oxo-3-(5,6,7,8-tetrahydro-1,8-naphthyridin-2-yl)propyl]-4-piperidinebutanoic acid]: the IC50 was found to be 0.0019 ± 0.0004 µM on human purified αVβ5 (read-out: αvβ5 IC50), 0.0004 ± 0.0002 µM at Human αvβ3 (read-out: αvβ3IC50) and 2.93 ± 1.86 µM at GP IIb/IIIa (read-out: αIIbβ3 IC50).
The matching figures for `O=C(O)CCC1CCN(C(=O)Cc2cccc(NC3=NCCCN3)c2)CC1` [Cpd 1, 1-[[3-[(1,4,5,6-Tetrahydro-2-pyrimidinyl)amino]phenyl]acetyl]-4-piperidinepropanoic acid]: above 5 µM, 0.056 ± 0.007 µM and 4.33 ± 0.15 µM.
As for `O=C(O)CC(CCC1CCN(C(=O)CCc2ccc3c(n2)NCCC3)CC1)c1cnc2ccccc2c1` (stereo not drawn) [Cpd 51, β-[2-[1-[1-oxo-3-(5,6,7,8-tetrahydro-1,8-naphthyridin-2-yl)propyl]-4-piperidinyl]ethyl]-3-quinolinepropanoic acid], the IC50 came to 0.169 ± 0.019 µM at human purified αVβ5 (read-out: αvβ5 IC50), 0.003 ± 0.0006 µM on Human αvβ3 (read-out: αvβ3IC50) and 0.48 ± 0.01 µM at GP IIb/IIIa (read-out: αIIbβ3 IC50).
Consider `COc1ccc(C(CC(=O)O)CC2CCN(C(=O)CCc3ccc4c(n3)NCCC4)CC2)cn1` (stereo not drawn) [Cpd 28, 6-methoxy-β-[[1-[1-oxo-3-(5,6,7,8-tetrahydro-1,8-naphthyridin-2-yl)propyl]-4-piperidinyl]methyl]-3-pyridinepropanoic acid], for which the IC50 is 0.0027 ± 0.0008 µM on human purified αVβ5 (αvβ5 IC50 (uM)), 0.0007 ± 0.0002 µM on Human αvβ3 (αvβ3IC50 (uM)) and 6.1 ± 2.44 µM at GP IIb/IIIa (αIIbβ3 IC50 (uM)).
In the case of `COc1ccc(C(CC(=O)O)CC2CCN(C(=O)CCc3ccc4c(n3)NCCC4)CC2)cn1` (single isomer, unassigned) [Cpd 28a, 6-methoxy-β-[[1-[1-oxo-3-(5,6,7,8-tetrahydro-1,8-naphthyridin-2-yl)propyl]-4-piperidinyl]methyl]-3-pyridinepropanoic acid], the IC50 on human purified αVβ5 (read-out: αvβ5 IC50) was 0.0042 ± 0.0018 µM; at Human αvβ3 (read-out: αvβ3IC50), 0.0003 ± 0.0002 µM; at GP IIb/IIIa (αIIbβ3 IC50 (uM)), 1.83 ± 0.57 µM.
In the case of `O=C(O)CC(CC1CCN(C(=O)CCc2ccc3c(n2)NCCC3)CC1)c1cccnc1` (stereo not drawn) [Cpd 45, β-[[1-[1-oxo-3-(5,6,7,8-tetrahydro-1,8-naphthyridin-2-yl)propyl]-4-piperidinyl]methyl]-3-pyridinepropanoic acid], the figures for the IC50 on human purified αVβ5 (read-out: αvβ5 IC50), at Human αvβ3 (read-out: αvβ3IC50) and at GP IIb/IIIa (read-out: αIIbβ3 IC50) were 0.0017 ± 0.0003 µM, 0.0008 ± 0.0001 µM and 6.61 ± 2.85 µM, respectively.
The matching figures for `O=C(O)CC(CC1CCN(C(=O)CCc2ccc3c(n2)NCCC3)CC1)c1ccc2c(c1)OCC2` (stereo not drawn) [Cpd 36, β-(2,3-dihydro-6-benzofuranyl)-1-[1-oxo-3-(5,6,7,8-tetrahydro-1,8-naphthyridin-2-yl)propyl]-4-piperidinebutanoic acid]: 0.0007 ± 0.0002 µM, 0.0008 ± 6e-05 µM and 3.11 ± 0.04 µM.
For `CCCCCCCCOC(=O)CCCC1CCN(C(=O)CCc2ccc3c(n2)NCCC3)CC1` [Cpd 71, 4-[1-(3-5,6,7,8-Tetrahydro-[1,8]naphthyridin-2-yl-propionyl)-piperidin-4-yl]-butyric acid octyl ester] the same measures were above 1 µM, above 0.5 µM and above 50 µM.
For `O=C(O)CC(CCC1CCN(C(=O)c2cccc(NC3=NCC(O)CN3)c2)CC1)c1ccc2c(c1)OCO2` (stereo not drawn) [Cpd 54, β-(1,3-benzodioxol-5-yl)-1-[3-[(1,4,5,6-tetrahydro-5-hydroxy-2-pyrimidinyl)amino]benzoyl]-4-piperidinepentanoic acid] the same measures were 0.0347 ± 0.0117 µM, 0.0017 ± 0.0005 µM and 0.24 µM.
As for `O=C(O)CC(CCC1CCN(C(=O)CCc2ccc3c(n2)NCCC3)CC1)c1ccc2c(c1)OCO2` (stereo not drawn) [Cpd 20, β-(1,3-benzodioxol-5-yl)-1-[1-oxo-3-(5,6,7,8-tetrahydro-1,8-naphthyridin-2-yl)propyl]-4-piperidinepentanoic acid], the IC50 on human purified αVβ5 (read-out: αvβ5 IC50) amounted to 0.995 µM; at Human αvβ3 (read-out: αvβ3IC50) it was 0.142 ± 0.027 µM; at GP IIb/IIIa (read-out: αIIbβ3 IC50), 1.8 µM.
The matching figures for `O=C(O)CC(c1cnc2c(c1)CCCC2)C1CCN(C(=O)CCCc2ccc3c(n2)NCCC3)CC1` (single isomer, unassigned) [Cpd 58a, 5,6,7,8-Tetrahydro-β-[1-[1-oxo-4-(5,6,7,8-tetrahydro-1,8-naphthyridin-2-yl)butyl]-4-piperidinyl]-3-quinolinepropanoic acid]: 0.0323 ± 0.0082 µM, 0.0004 ± 0.0003 µM and 1.44 ± 0.39 µM.
On to `COc1cc(C(CC(=O)O)CC2CCN(C(=O)CCc3ccc4c(n3)NCCC4)CC2)ccc1O` (racemic) [Cpd 76, 3-(4-Hydroxy-3-methoxy-phenyl)-4-[1-(3-5,6,7,8-tetrahydro-[1,8]naphthyridin-2-yl-propionyl)-piperidin-4-yl]-butyric acid], for which the IC50 on human purified αVβ5 (read-out: αvβ5 IC50) is 0.0397 ± 0.0121 µM; at Human αvβ3 (read-out: αvβ3IC50) it was 0.0018 ± 0.0003 µM; on GP IIb/IIIa (read-out: αIIbβ3 IC50), 5.38 µM.
Consider `O=C(O)CC(CC1CCN(C(=O)CCc2ccc3c(n2)NCCC3)CC1)c1cccc(F)c1` (single isomer, unassigned) [Cpd 30b, β-(3-fluorophenyl)-1-[1-oxo-3-(5,6,7,8-tetrahydro-1,8-naphthyridin-2-yl)propyl]-4-piperidinebutanoic acid], for which the IC50 at human purified αVβ5 (read-out: αvβ5 IC50) is 0.0482 ± 0.0028 µM; on Human αvβ3 (read-out: αvβ3IC50) it was 0.0317 ± 0.0147 µM; at GP IIb/IIIa (read-out: αIIbβ3 IC50), above 50 µM.
For `COc1cccc(C(CC(=O)O)CC2CCN(C(=O)CCc3ccc4c(n3)NCCC4)CC2)c1` (racemic) [Cpd 59] the same measures were 0.0096 ± 0.0038 µM, 0.0026 ± 0.0014 µM and 7.81 ± 4.67 µM.
